Source: PubChem BioAssay (NCI)
“And” between values parts separate entries of the source, which are not always exact repeats. Equal values may be shown once.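 Step 1: Grow cells in 96-well plates. Step 2: Expose to compound for 48 hours at 5 concentrations. Step 3: Interpolate endpoints linearly; if unreached, use highest concentration. GI50 marks 50% less growth. TGI: concentration producing complete growth inhibition.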

Tests used:
Assay in all cases: NCI anticancer screen, dose series, 48 h
[1] = test system: NCI-H460 lung
[2] = test system: T-47D breast
[3] = test system: UO-31 renal
[4] = test system: K-562 leukemia
[5] = test system: PC-3 prostate
[6] = test system: SK-MEL-5 melanoma
[7] = test system: KM12 colon
[8] = test system: U251 CNS
[9] = test system: SW-620 colon
[10] = test system: LOX IMVI melanoma

Row | SMILES | GI50 [1] | TGI [1] [µM] | GI50 [2] | TGI [2] | GI50 [3] | TGI [3] | GI50 [4] | TGI [4] [µM] | GI50 [5] | TGI [5] | GI50 [6] | TGI [6] | GI50 [7] | TGI [7] | GI50 [8] | TGI [8] [µM] | GI50 [9] | TGI [9] | GI50 [10] | TGI [10] [µM]
1 | CN1CCN(CCCn2c3c(sc4ncccc43)c(=O)n3nnc(-c4ccccc4)c23)CC1 | 1.65 µM | 3.37 | 20.2 µM | 39.4 µM | 0.802 µM | 2.42 µM | 0.593 µM | 1.56 | 1.61 µM | 4.03 µM | 1.65 µM | 3.05 µM | 1.55 µM | 3.17 µM | 1.86 µM | 3.3 | 1.52 µM | 3.25 µM | 1.39 µM | 2.75
2 | c1ccc(OCC[P+](c2ccccc2)(c2ccccc2)c2ccccc2)cc1 | 1.35 µM | 10.4 | 0.265 µM | 2.4 µM | 16.9 µM | > 79 µM | 0.743 µM | > 85.5 | 0.535 µM | 11.6 µM | 0.416 µM | 1.56 µM | 1.31 µM | 8.84 µM | 0.99 µM | 13 | 1.76 µM | 11.8 µM | 0.926 µM | 9.68
3 | Cc1cccc(Nc2ncc(-c3ccccc3)o2)c1 | > 25 µM | > 25 | > 25 µM | > 25 µM | > 25 µM | > 25 µM | > 25 µM | > 25 | > 25 µM | > 25 µM | > 25 µM | > 25 µM | 8.04 µM | > 25 µM | > 25 µM | > 25 | > 25 µM | > 25 µM | > 25 µM | > 25
4 | CC#CC#C/C=C1/C=CC2(CCCCO2)O1 (configuration not stated) | – | > 100 | – | > 100 µM | – | > 100 µM | – | > 100 | – | > 100 µM | – | > 100 µM | – | > 100 µM | – | > 100 | – | > 100 µM | – | > 100
5 | C=C1C(=O)O[C@H]2[C@H]1CC/C(COC(=O)NCCc1ccc(Br)cc1)=C\CC[C@@]1(C)O[C@@H]21 | 2.06 µM | 4.64 | 1.38 µM | 3.72 µM | 1.55 µM | 2.95 µM | 0.535 µM | 5.61 | 1.73 µM | 3.32 µM | 1.71 µM | 3.22 µM | 1.95 µM | 4.46 µM | 1.4 µM | 2.75 | 0.711 µM | 2.4 µM | 1.18 µM | 2.58
6 | CC(=O)OCc1cc[c]([Hg][Cl])o1 | 15.5 µM | 45.6 | 1.36 µM | 3.98 µM | 1.82 µM | 3.45 µM | 0.991 µM | 10.3 | 11 µM | 24.2 µM | 4.38 µM | 15.9 µM | 16.8 µM | 42.2 µM | 2 µM | 5.02 | 1.6 µM | 3.82 µM | 1.96 µM | 4.96
7 | COc1cc(/C=C/[N+](=O)[O-])cc(OC)c1 | 3.51 µM | 10.5 | 2.17 µM | 7.03 µM | 1.78 µM | 3.4 µM | 1.75 µM | 9.09 | 2.94 µM | 8.38 µM | 1.97 µM | 4.03 µM | 3.08 µM | 10.5 µM | 2.22 µM | 5.48 | 1.68 µM | 3.65 µM | 1.42 µM | 2.75
8 | CC1NCCC(CC(=O)O)C1CC(=O)O (configuration not stated) | – | > 100 | – | > 100 µM | – | > 100 µM | – | > 100 | – | > 100 µM | – | > 100 µM | – | > 100 µM | – | > 100 | – | > 100 µM | – | > 100
9 | CCN1C(=O)N(CC)C2C1NN=c1s/c(=C\c3ccc(Br)cc3)c(=O)n12 (configuration not stated) | 0.119 µM | > 100 | 5.11 µM | > 100 µM | 1.51 µM | > 100 µM | 0.0453 µM | > 100 | 0.168 µM | > 100 µM | 0.118 µM | 1.84 µM | 0.0604 µM | > 100 µM | 0.18 µM | > 54.2 | 0.0762 µM | > 100 µM | 0.185 µM | > 100
10 | NC(=O)C1CCCN1Cc1ccc2c(c1)OCO2 (configuration not stated) | – | > 100 | – | > 100 µM | – | > 100 µM | – | > 100 | – | > 100 µM | – | > 100 µM | – | > 100 µM | – | > 100 | – | > 100 µM | – | > 100
11 | CC1(/C=C/c2ccc(-c3ccccc3)cc2)CCn2cnc3ncnc(c32)N1O (configuration not stated) | 0.264 µM | 8.25 | 0.462 µM | 54.3 µM | 0.162 µM | 1.2 µM | 0.359 µM | > 66.7 | 0.57 µM | 34.8 µM | 0.324 µM | 2.75 µM | 0.415 µM | 23.1 µM | 0.418 µM | 22 | 0.529 µM | 24.6 µM | 0.302 µM | 21.6
12 | COc1ccc(N2CCN(c3nc(-c4ccccn4)nc4sc5c(c34)CCCCCC5)CC2)cc1 | 4.67 µM | > 100 | 6.31 µM | > 100 µM | 3.28 µM | > 100 µM | 4.15 µM | > 100 | 3.31 µM | > 100 µM | 2.85 µM | > 100 µM | 5.15 µM | > 100 µM | 4.26 µM | > 100 | 5.08 µM | > 100 µM | 6.24 µM | > 100
13 | Clc1ccc(Nc2nnc(COc3ccccc3)c3ccccc23)cc1 | 2.7 µM | 7.12 | 0.881 µM | 8.44 µM | 0.727 µM | 5.2 µM | 1.85 µM | 11.9 | 1.3 µM | 10.1 µM | 1.08 µM | 4.56 µM | 2.65 µM | 7.72 µM | 2.93 µM | 7.47 | 2.86 µM | 7.79 µM | 1.29 µM | 4.85
14 | O=C(Nc1ccc([N+](=O)[O-])cc1Cl)c1cc(Cl)ccc1O | 0.134 µM and 0.213 µM | 5.98 | 0.107 µM and 0.188 µM | 0.361 µM and 0.836 µM | 0.129 µM and 0.254 µM | 0.437 µM and 1.01 µM | 0.12 µM and 0.21 µM | – | 0.203 µM and 0.295 µM | 5.42 µM and > 38.7 µM | 0.0515 µM and 0.116 µM | 0.15 µM and 0.276 µM | 0.169 µM and 0.303 µM | 0.608 µM and 1.2 µM | 0.0971 µM and 0.217 µM | – | 0.163 µM and 0.333 µM | 15.5 µM and 11.9 µM | 0.162 µM and 0.244 µM | –
